This note sets out measurements from patent US10912771B1, “Methods for the administration of certain VMAT2 inhibitors” (Neurocrine Biosciences, Inc., priority 2017, dated 2021).

“Also recorded” adds a separate entry of the source. Read-outs that look alike come from different tables or passages of the source.

In one series the target is T1, human VMAT1 transporter (Homo sapiens, UniProt P54219).
T1 construct: expressed in transfected cells
T1 sequence (P54219 1-525): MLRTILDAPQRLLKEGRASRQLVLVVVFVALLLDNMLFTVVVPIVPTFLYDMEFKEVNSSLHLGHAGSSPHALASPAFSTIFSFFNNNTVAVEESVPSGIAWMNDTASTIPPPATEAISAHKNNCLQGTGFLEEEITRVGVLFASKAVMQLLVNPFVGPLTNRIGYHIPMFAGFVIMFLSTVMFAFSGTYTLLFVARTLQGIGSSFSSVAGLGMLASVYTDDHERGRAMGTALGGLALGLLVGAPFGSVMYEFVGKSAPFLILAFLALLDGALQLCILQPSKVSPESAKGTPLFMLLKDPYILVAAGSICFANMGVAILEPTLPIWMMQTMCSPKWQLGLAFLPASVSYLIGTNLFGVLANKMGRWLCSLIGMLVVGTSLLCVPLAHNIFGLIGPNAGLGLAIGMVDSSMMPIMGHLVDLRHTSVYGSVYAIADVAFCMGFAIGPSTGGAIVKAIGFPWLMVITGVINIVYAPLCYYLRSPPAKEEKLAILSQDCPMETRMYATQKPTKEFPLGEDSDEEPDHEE
Kind of series: Uptake in cells expressing VMAT1. In kind it is cell-based. The conditions noted are these: TBZ, VBZ and metabolites at concentrations up to 10 μM.

A short description of series [1]: Ptosis, in vivo surrogate measure of pharmacological effect.
Series [2] is described as follows: Phase 1 drug-interaction study: safety, treatment-emergent adverse events. In kind it is in vivo, human. The conditions noted are these: Safety Analysis Set, healthy subjects, by treatment period. On the procedure: (§1) Subjects received a single dose of 80 mg valbenazine tosylate on Days 1 and 11 between 0800 and 1000 hours. In addition, subjects received 600 mg rifampin (300 mg×2 capsules) once daily on Days 5 (after collection of the 96-hour PK sample) through 14 between 0830 and 1030 hours. Subjects were required to fast overnight before receiving the study drugs (valbenazine tosylate and rifampin). Subjects were discharged from the study center on Day 15 (final study day or upon early termination) after all safety evaluations and study assessments had been completed.
(§2) An analysis of variance (ANOVA) model was used to compare AUC0-∞ and Cmax for NBI-98854 administered with rifampin (“test”) versus AUC0-∞ and Cmax for NBI-98854 alone (“reference”). The PK parameters for metabolites of NBI-98854 and rifampin were also evaluated. Safety data were summarized using descriptive statistics.

A further series has as its target Serotonin 5-HT7 (Homo sapiens, UniProt P34969). As to the kind of experiment: Cerep screen, Serotonin 5-HT7. The conditions noted are these: 1 or 10 μM final concentration; n=2.
In a further series the target is T2, Serotonin 5-HT1A (Homo sapiens, UniProt P08908).
T2 sequence (P08908 1-422): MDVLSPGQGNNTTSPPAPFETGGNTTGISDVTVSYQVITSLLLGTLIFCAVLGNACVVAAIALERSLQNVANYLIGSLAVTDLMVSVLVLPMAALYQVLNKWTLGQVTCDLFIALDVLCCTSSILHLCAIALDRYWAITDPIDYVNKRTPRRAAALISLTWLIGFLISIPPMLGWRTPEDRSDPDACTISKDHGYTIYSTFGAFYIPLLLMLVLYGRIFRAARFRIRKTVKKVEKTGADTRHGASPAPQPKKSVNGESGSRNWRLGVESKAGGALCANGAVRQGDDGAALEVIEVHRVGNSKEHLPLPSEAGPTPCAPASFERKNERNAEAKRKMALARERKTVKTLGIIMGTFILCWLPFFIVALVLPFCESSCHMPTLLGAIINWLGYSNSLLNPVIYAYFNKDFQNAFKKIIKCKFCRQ
As to the kind of experiment: Cerep screen, Serotonin 5-HT1A. The conditions noted are these: 1 or 10 μM final concentration; n=2.

Series [3] in a line: Phase 1 open-label one-sequence crossover drug-interaction study: plasma pharmacokinetics of NBI-98854 and metabolites with and without rifampin. In kind it is in vivo, human. The conditions noted are these: for half-life: read-out: Mean t1/2 (converted); for AUC(0-inf) / Cmax / MRT / AUC(0-t) / Tlag / t1/2: Mean (SD); for AUC(0-t): plasma. On the procedure:
as §1
Safety was assessed throughout the study.
NBI-98854 40 mg capsules were administered orally. The dose of NBI-98854 was based on ditosylate salt (dose expressed as free base). Subjects received a single dose of NBI-98854 80 mg (as two 40 mg capsules) twice during the study, on Days 1 and 11.
Rifampin 300 mg capsules were administered orally. Subjects received a single dose of rifampin 600 mg (as two 300 mg capsules) on Days 5 (after collection of the 96 hour NBI-98854 PK sample) through 14 between 0830 and 1030 hours.
The following plasma PK parameters were calculated only for NBI-98854: • Apparent systemic clearance after oral administration (CL/F) • Apparent volume of distribution during the terminal phase after oral administration (Vz/F)
The last significant figure was rounded up if the digit to the right of it was >5, and was rounded down if the digit to the right of it was […].
The last significant figure was rounded up if the digit to the right of it was ≥5, and was rounded down if the digit to the right of it was ≤4.
as §2

The next series addresses T3, VMAT2 (Homo sapiens, UniProt Q05940).
T3 construct: from tissue; host or cells: human platelets (homogenates)
Kind of series: Inhibition of [3H]-DHTBZ binding to human platelets.

Series [4] concerns more than 80 targets (GPCRs, cell-surface monoamine transporters, ion channels including HERG). Kind of series: Cerep multi-target activity screen. The conditions noted are these: receptors, monoamine transporters, and ion channels.
The mark [5] stands for this setting: both sexes, human, oral, plasma metabolite NBI-136110, NBI-98854 80 mg + rifampin 600 mg, N = 11.
The mark [6] stands for this setting: both sexes, human, oral, plasma metabolite NBI-136110, NBI-98854 80 mg alone, N = 11.
The mark [7] stands for this setting: plasma metabolite NBI-136110, NBI-98854 80 mg + rifampin 600 mg, N = 11.
Where [8] appears, read: plasma metabolite NBI-136110, NBI-98854 80 mg alone, N = 11.

T3 sequence (Q05940 whole entry): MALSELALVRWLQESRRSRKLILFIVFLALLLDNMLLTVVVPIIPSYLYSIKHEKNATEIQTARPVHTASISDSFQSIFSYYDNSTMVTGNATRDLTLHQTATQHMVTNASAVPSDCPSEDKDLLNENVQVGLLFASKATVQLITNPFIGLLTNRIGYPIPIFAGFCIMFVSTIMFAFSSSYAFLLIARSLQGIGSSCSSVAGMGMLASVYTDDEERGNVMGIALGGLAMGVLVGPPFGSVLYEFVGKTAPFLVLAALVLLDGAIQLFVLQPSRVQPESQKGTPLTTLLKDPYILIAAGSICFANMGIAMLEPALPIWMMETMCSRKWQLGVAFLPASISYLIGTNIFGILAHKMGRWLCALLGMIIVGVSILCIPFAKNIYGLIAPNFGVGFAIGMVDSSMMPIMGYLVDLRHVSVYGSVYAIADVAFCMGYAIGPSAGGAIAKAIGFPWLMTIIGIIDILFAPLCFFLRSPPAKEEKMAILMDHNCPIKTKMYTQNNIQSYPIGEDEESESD
Sequence of Serotonin 5-HT7 (P34969 whole entry): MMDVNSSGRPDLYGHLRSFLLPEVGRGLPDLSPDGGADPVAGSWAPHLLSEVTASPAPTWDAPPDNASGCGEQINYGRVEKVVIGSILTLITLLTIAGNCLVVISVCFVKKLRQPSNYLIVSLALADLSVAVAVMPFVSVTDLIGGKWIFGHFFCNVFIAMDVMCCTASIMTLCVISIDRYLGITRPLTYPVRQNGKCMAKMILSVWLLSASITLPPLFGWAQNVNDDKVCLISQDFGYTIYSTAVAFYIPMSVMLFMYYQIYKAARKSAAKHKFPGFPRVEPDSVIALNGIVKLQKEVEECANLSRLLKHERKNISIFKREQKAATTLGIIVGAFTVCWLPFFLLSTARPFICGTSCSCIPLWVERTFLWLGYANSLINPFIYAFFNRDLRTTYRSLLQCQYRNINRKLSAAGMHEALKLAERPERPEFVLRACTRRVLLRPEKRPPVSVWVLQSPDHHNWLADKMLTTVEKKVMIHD

Turning to `COC(=O)[C@H]1[C@H]2C[C@@H]3c4[nH]c5cc(OC)ccc5c4CCN3C[C@H]2C[C@@H](OC(=O)c2cc(OC)c(OC)c(OC)c2)[C@@H]1OC` [reserpine, reference compound], at human VMAT1 transporter, the “inhibition of uptake through VMAT1” value was “substantially inhibited uptake”.

Turning to `COc1cc2c(cc1OC)C1CC(=O)C(CC(C)C)CN1CC2` (stereo not drawn) [TBZ, reference compound], at human VMAT1 transporter, the “inhibition of uptake through VMAT1” value is listed as “no significant inhibitory activity; also recorded: no significant effect”. In series [1], the induction of ptosis entry is on record as “induced ptosis in an equivalent manner”.

In the case of `CO[C@H]1/C=C/O[C@@]2(C)Oc3c(C)c(O)c4c(O)c(c(/C=N/N5CCN(C)CC5)c(O)c4c3C2=O)NC(=O)/C(C)=C\C=C\[C@H](C)[C@H](O)[C@@H](C)[C@@H](O)[C@@H](C)[C@H](OC(C)=O)[C@@H]1C` [Rifampin, reference compound], in series [2], the “Subjects who experienced a TEAE: Overall” value was 12 (100) n (%), the “TEAE: Abdominal pain” value is recorded as 0 n (%), the “TEAE: Abdominal pain upper” value is listed as 1 (8.3) n (%) and the “TEAE: Arthropod bite” value was 0 n (%). Also, in series [2], the “TEAE: Chromaturia” value is listed as 12 (100) n (%), the “TEAE: Headache” value was 0 n (%), the “TEAE: Hypoaesthesia” value is listed as 0 n (%) and the “TEAE: Non-cardiac chest pain” value is 1 (8.3) n (%). In series [2], the “TEAE: Paraesthesia” value is on record as 1 (8.3) n (%) and the “TEAE: Vessel puncture site haemorrhage” value was 0 n (%). Besides, in series [2] (listed as rifampin), the “TEAE: Chromaturia” value was 12 n (%).

Regarding `COc1cc2c(cc1OC)[C@H]1C[C@H](O)[C@H](CC(C)C)CN1CC2` [S,R,R-DHTBZ, reference compound], the “percent of control specific binding, Serotonin 5-HT7” value at Serotonin 5-HT7 was determined as 80%. The “percent of control specific binding, Serotonin 5-HT1A” value at Serotonin 5-HT1A was determined as 69%.

With `COc1cc2c(cc1OC)[C@H]1C[C@@H](OC(=O)[C@@H](N)C(C)(C)O)[C@H](CC(C)C)CN1CC2` [NBI-136110], the half-life is 27 h in series [3] (both sexes, human, oral, 80 mg, plasma analyte, NBI-98854 alone) and 12 h in series [3] (both sexes, human, oral, plasma analyte, NBI-98854 administered with rifampin). The Tmax in series [3] (both sexes, human, oral, 80 mg, plasma analyte, NBI-98854 alone, read-out: Median tmax) is 3 h; in series [3] (both sexes, human, oral, plasma analyte, NBI-98854 in combination with rifampin vs NBI-98854 alone, read-out: Median tmax shorter), 1.5 h; in series [3] (plasma metabolite NBI-136110, NBI-98854 80 mg + rifampin 600 mg, N = 11, Median (min, max)) it was 1.5 (0.75, 2.1) hr; in series [3] (plasma metabolite NBI-136110, NBI-98854 80 mg alone, N = 11, Median (min, max)) it was 3.0 (2.0, 8.0) hr. Further, the figures for the AUC(0-inf) in series [3] (setting [5]) and in series [3] (setting [6]) were 663 ng·h/mL and 2080 ng·h/mL, respectively. Moreover, the Cmax in series [3] (setting [5]) was determined as 81.5 ng/mL; in series [3] (setting [6]), 59.8 ng/mL. Further, the results for the MRT in series [3] (setting [5]) and in series [3] (setting [6]) were 12 h and 39 h, respectively. The AUC(0-t) in series [3] (both sexes, human, oral, 80 mg, plasma metabolite NBI-136110, NBI-98854 80 mg alone, N = 11, read-out: AUC0-24) is 963 ng·h/mL; in series [3] (both sexes, human, oral, 80 mg, plasma metabolite NBI-136110, NBI-98854 80 mg alone, N = 11, read-out: AUC0-tlast) it was 1890 ng·h/mL; in series [3] (both sexes, human, oral, plasma metabolite NBI-136110, NBI-98854 80 mg + rifampin 600 mg, N = 11, read-out: AUC0-24), 554 ng·h/mL; in series [3] (both sexes, human, oral, plasma metabolite NBI-136110, NBI-98854 80 mg + rifampin 600 mg, N = 11, read-out: AUC0-tlast), 658 ng·h/mL. In series [3] (plasma analyte, NBI-98854 in combination with rifampin vs NBI-98854 alone), the “Mean t1/2 shorter” value was “approximately 40%”. Moreover, the “decrease in AUC0-∞” value in series [3] (plasma analyte, NBI-98854 plus rifampin compared with NBI-98854 alone) is listed as “approximately 70%”. Further, the figures for the Tlag in series [3] (setting [7]) and in series [3] (setting [8]) were 0.16 (0.13) hr and 0.23 (0.14) hr, respectively. In addition, the t1/2 in series [3] (setting [7]) was 12 (3.0) hr; in series [3] (setting [8]), 27 (6.7) hr. Besides, on VMAT2, the “Affinity Relative to R,R,R-DHTBZ” value is 67. In addition, the “pKi mean (SEM)” value at VMAT2 (n=4) was 6.65 (0.04). Also, at human VMAT1 transporter, the “inhibition of uptake through VMAT1” value is given as “no significant inhibitory activity; also recorded: no significant effect”. The “affinity for more than 80 binding sites” value in series [4] is “little to no affinity”.

Broadly, the AUC(0-inf) is total exposure, with the tail of the curve extrapolated. For orientation: Cmax means the maximum level reached in the sampled fluid or tissue. By MRT is commonly meant the average time that molecules of a dose stay in the body.
